We go through ten compounds from patent US10294234B2, “HIV inhibitor compounds” (priority 2017, dated 2019).

The test system of this assay is HIV-1 (IIIB) in MT-4 cells. Kind of assay: MT-4 HIV assay. It is filed as cell-based. As to conditions: Human immunodeficiency virus 1, MT4, 120 h; HIV-1 (IIIB), MT-4 cells, 5 days, Cell Titer Glo; read-out: EC50. The procedure, abridged:
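Antiviral activity was read by Cell Titer Glo after a 5-day, 37 °C culture of MT-4 cells pre-infected with a 1:250 dilution of HIV-1 (IIIB). Compounds were tested as threefold dilution series in complete RPMI. Controls were no drug, mock infection and 5 uM AZT.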
On the technique in general: ATP-based viability assays read luminescence as a measure of living cells.
As usually defined, the EC50 is the midpoint of the concentration-response curve. For `COC(=O)N[C@H](C(=O)N[C@@H](Cc1ccc(C#Cc2ccc(N3CC4CC(CN(c5ccccn5)C4)C3)nc2)cc1)[C@@H](O)CN(Cc1c(F)cc(-c2cnn(C(F)F)c2)cc1F)NC(=O)[C@@H](NC(=O)OC)C(C)(C)C(F)(F)F)C(C)(C)C(F)(F)F` [Example 66, Methyl ((5S,8S,9S,14S)-11-(4-(1-(difluoromethyl)-1H-pyrazol-4-yl)-2,6-difluorobenzyl)-16,16,16-trifluoro-9-hydroxy-15,15-dimethyl-3,6,13-trioxo-8-(4-((6-(7-(pyridin-2-yl)-3,7-diazabicyclo[3.3.1]nonan-3-yl)pyridin-3-yl)ethynyl)benzyl)-5-(1,1,1-trifluoro-2-methylpropan-2-yl)-2-oxa-4,7,11,12-tetraazahexadecan-14-yl)carbamate], the EC50 is 14.5 nM.
Take `COC(=O)N[C@H](C(=O)NN(Cc1c(F)cc(-c2nnc(C3CC3)s2)cc1F)C[C@H](O)[C@H](Cc1ccc(C#Cc2ccc(N3CC4CCC(C3)N4C3COC3)nc2)cc1)NC(=O)[C@@H](NC(=O)OC)C(C)(C)C(F)(F)F)C(C)(C)C` [Example 76, Methyl ((5S,8S,9S,14S)-11-(4-(5-cyclopropyl-1,3,4-thiadiazol-2-yl)-2,6-difluorobenzyl)-9-hydroxy-15,15-dimethyl-8-(4-((6-(8-(oxetan-3-yl)-3,8-diazabicyclo[3.2.1]octan-3-yl)pyridin-3-yl)ethynyl)benzyl)-3,6,13-trioxo-5-(1,1,1-trifluoro-2-methylpropan-2-yl)-2-oxa-4,7,11,12-tetraazahexadecan-14-yl)carbamate]: the EC50 turned out to be 3.53 nM.
To `COC(=O)N[C@H](C(=O)NN(Cc1c(F)cc(-c2cnn(C(F)F)c2)cc1F)C[C@H](O)[C@H](Cc1ccc(C#Cc2ccc(N3CC4CCC(C3)N4C3COC3)nc2)cc1)NC(=O)[C@@H](NC(=O)OC)C(C)(C)C(F)(F)F)C(C)(C)CF` [Example 80, Methyl ((5S,8S,9S,14S)-11-(4-(1-(difluoromethyl)-1H-pyrazol-4-yl)-2,6-difluorobenzyl)-16-fluoro-9-hydroxy-15,15-dimethyl-8-(4-((6-(8-(oxetan-3-yl)-3,8-diazabicyclo [3.2.1]octan-3-yl)pyridin-3-yl)ethynyl)benzyl)-3,6,13-trioxo-5-(1,1,1-trifluoro-2-methylpropan-2-yl)-2-oxa-4,7,11,12-tetraazahexadecan-14-yl)carbamate] belongs 3.13 nM; to `COC(=O)N[C@H](C(=O)N[C@@H](Cc1ccc(C#Cc2ccc(N3CC4CCC(C3)N4C3COC3)nc2)cc1)[C@@H](O)CN(Cc1c(F)cc(C2COC2)cc1F)NC(=O)[C@@H](NC(=O)OC)C(C)(C)C(F)(F)F)C(C)(C)C(F)(F)F` [Example 83, Methyl ((5S,8S,9S,14S)-11-(2,6-difluoro-4-(oxetan-3-yl)benzyl)-16,16,16-trifluoro-9-hydroxy-15,15-dimethyl-8-(4-((6-(8-(oxetan-3-yl)-3,8-diazabicyclo[3.2.1]octan-3-yl)pyridin-3-yl)ethynyl)benzyl)-3,6,13-trioxo-5-(1,1,1-trifluoro-2-methylpropan-2-yl)-2-oxa-4,7,11,12-tetraazahexadecan-14-yl)carbamate], 17.2 nM; to `COC(=O)N[C@H](C(=O)N[C@@H](Cc1ccc(C#Cc2ccc(N3CC4CCC(C3)N4C3COC3)nc2)cc1)[C@@H](O)CN(Cc1c(F)cc(-c2ccccn2)cc1F)NC(=O)[C@@H](NC(=O)OC)C(C)(C)C)C(C)(C)C` [Example 84, Methyl ((5S,8S,9S,14S)-5-(tert-butyl)-11-(2,6-difluoro-4-(pyridin-2-yl)benzyl)-9-hydroxy-15,15-dimethyl-8-(4-((6-(8-(oxetan-3-yl)-3,8-diazabicyclo[3.2.1]octan-3-yl)pyridin-3-yl)ethynyl)benzyl)-3,6,13-trioxo-2-oxa-4,7,11,12-tetraazahexadecan-14-yl)carbamate], 3.23 nM.
Then `COC(=O)N[C@H](C(=O)NN(Cc1c(F)cc(-c2ccn(C3CC3)n2)cc1F)C[C@H](O)[C@H](Cc1ccc(C#Cc2ccc(N3CCN(C4COC4)CC3)nc2)cc1)NC(=O)[C@@H](NC(=O)OC)C(C)(C)C(F)(F)F)C(C)(C)C` [Example 91, Methyl ((5S,8S,9S,14S)-11-(4-(1-cyclopropyl-1H-pyrazol-3-yl)-2,6-difluorobenzyl)-9-hydroxy-15,15-dimethyl-8-(4-((6-(4-(oxetan-3-yl)piperazin-1-yl)pyridin-3-yl)ethynyl)benzyl)-3,6,13-trioxo-5-(1,1,1-trifluoro-2-methylpropan-2-yl)-2-oxa-4,7,11,12-tetraazahexadecan-14-yl)carbamate], with 3.69 nM; and `COC(=O)N[C@H](C(=O)N[C@@H](Cc1ccc(C#Cc2ccc(N3CCN(C4COC4)CC3)nc2)cc1)[C@@H](O)CN(Cc1c(F)cc(-c2ccn(C3CC3)n2)cc1F)NC(=O)[C@@H](NC(=O)OC)C(C)(C)C(F)(F)F)C(C)(C)C(F)(F)F` [Example 92, Methyl ((5S,8S,9S,14S)-11-(4-(1-cyclopropyl-1H-pyrazol-3-yl)-2,6-difluorobenzyl)-16,16,16-trifluoro-9-hydroxy-15,15-dimethyl-8-(4-((6-(4-(oxetan-3-yl)piperazin-1-yl)pyridin-3-yl)ethynyl)benzyl)-3,6,13-trioxo-5-(1,1,1-trifluoro-2-methylpropan-2-yl)-2-oxa-4,7,11,12-tetraazahexadecan-14-yl)carbamate], with 3.72 nM.
Regarding `COC(=O)N[C@H](C(=O)NN(Cc1c(F)cc(-c2ncccn2)cc1F)C[C@H](O)[C@H](Cc1ccc(C#Cc2ccc(N3CCN(C4COC4)CC3)nc2)cc1)NC(=O)[C@@H](NC(=O)OC)C(C)(C)C(F)(F)F)C(C)(C)C` [Example 94, methyl ((5S,8S,9S,14S)-11-(2,6-difluoro-4-(pyrimidin-2-yl)benzyl)-9-hydroxy-15,15-dimethyl-8-(4-((6-(4-(oxetan-3-yl)piperazin-1-yl)pyridin-3-yl)ethynyl)benzyl)-3,6,13-trioxo-5-(1,1,1-trifluoro-2-methylpropan-2-yl)-2-oxa-4,7,11,12-tetraazahexadecan-14-yl)carbamate], the EC50 is 2.57 nM.
In the case of `COC(=O)N[C@H](C(=O)NN(Cc1c(F)cc(-c2ncccn2)cc1F)C[C@H](O)[C@H](Cc1ccc(C#Cc2ccc(N3CC4CCC(C3)N4C3COC3)nc2)cc1)NC(=O)[C@@H](NC(=O)OC)C(C)(C)C(F)(F)F)C(C)(C)C` [Example 96, Methyl ((5S,8S,9S,14S)-11-(2,6-difluoro-4-(pyrimidin-2-yl)benzyl)-9-hydroxy-15,15-dimethyl-8-(4-((6-(8-(oxetan-3-yl)-3,8-diazabicyclo[3.2.1]octan-3-yl)pyridin-3-yl)ethynyl)benzyl)-3,6,13-trioxo-5-(1,1,1-trifluoro-2-methylpropan-2-yl)-2-oxa-4,7,11,12-tetraazahexadecan-14-yl)carbamate], the concentration giving a half-maximal response (EC50) was found to be 2.33 nM.
For `COC(=O)N[C@H](C(=O)N[C@@H](Cc1ccc(C#Cc2ccc(N3CC4CCC(C3)N4C3COC3)nc2)cc1)[C@@H](O)CN(Cc1c(F)cc(-c2ccc(C(F)F)nc2)cc1F)NC(=O)[C@@H](NC(=O)OC)C(C)(C)C(F)(F)F)C(C)(C)C(F)(F)F` [Example 100, Methyl ((5S,8S,9S,14S)-11-(4-(6-(difluoromethyl)pyridin-3-yl)-2,6-difluorobenzyl)-16,16,16-trifluoro-9-hydroxy-15,15-dimethyl-8-(4-((6-(8-(oxetan-3-yl)-3,8-diazabicyclo[3.2.1]octan-3-yl)pyridin-3-yl)ethynyl)benzyl)-3,6,13-trioxo-5-(1,1,1-trifluoro-2-methylpropan-2-yl)-2-oxa-4,7,11,12-tetraazahexadecan-14-yl)carbamate], the concentration for a half-maximal effect (EC50) worked out at 7.96 nM.
